Literature values in patent publication US9636319B1, “Fumarate ester dosage forms” (priority 2015, dated 2017).
Where a name gives a salt, the structure may show the parent alone.

Key:
[1] = tested on: Nuclear factor (erythroid-derived 2)-like 2 (Nrf2) pathway; settings: in vitro and in vivo in animals and humans
Human plasma protein = settings: independent of concentration

SMILES | Nrf2 pathway activation [1] | quantifiability in plasma following oral administration (human, in vivo, po) | Human plasma protein binding (Human plasma protein) | Tmax without meal (MMF in plasma, before the delay by a meal) | Tmax with meal (MMF in plasma, high-fat, high-calorie meal) | median Tmax of MMF ([…]) | dose dependence of Cmax and AUCoverall (dose range 120 mg to 360 mg) | reduction in the incidence of flushing (fed / postprandial state) | effect of a meal on AUC (high-fat, high-calorie meal) | decrease of Cmax by a meal (high-fat, high-calorie meal, MMF in plasma) | circulating MMF at 24 hours (human, in vivo) | terminal half-life (human, in vivo) | involvement of the cytochrome P450 (CYP) system in metabolism (metabolism through the tricarboxylic acid (TCA) cycle)
COC(=O)/C=C/C(=O)OC [DMF, dimethyl fumarate] | activate | not quantifiable | – | – | – | – | – | – | – | – | – | – | –
COC(=O)/C=C/C(=O)O [MMF, monomethyl fumarate] | – | – | 27-45% | 2.0 h | 5.5 h | 2 to 2.5 h | increased approximately dose proportionally | approximately 25% | did not affect | 40% | no circulating MMF is present at 24 hours in the majority of individuals | approximately 1 hour | no involvement
